From patent US11512053B2, “Arginine methyltransferase inhibitors and uses thereof” (priority 2013, dated 2022)
Like-named read-outs stand apart in the source and are kept apart here.

Biological target: full-length human PRMT6 (Flag- and His-tagged) (Homo sapiens, UniProt Q96LA8)
Assay: PRMT6 Biochemical Assay (3H-SAM Flashplate, peptide substrate)
Source text: General Materials. S-adenosylmethionine (SAM), S-adenosylhomocysteine (SAH), bicine, Tween20, dimethylsulfoxide (DMSO), bovine skin gelatin (BSG), sodium butyrate and Tris(2-carboxyethyl)phosphine hydrochloride solution (TCEP) were purchased from Sigma-Aldrich at the highest level of purity possible. ^3H-SAM was purchase from American Radiolabeled Chemicals with a specific activity of 80 Ci/mmol. 384-well streptavidin Flashplates were purchased from PerkinElmer.
Substrates. Peptide representative of human histone H4 residues 36-50 was synthesized with an N-terminal linker-affinity tag motif and a C-terminal amide cap by 21st Century Biochemicals. The peptide was purified by high-performance liquid chromatography (HPLC) to greater than 95% purity and confirmed by liquid chromatography mass spectrometry (LC-MS). The sequence was Biot-Ahx-[…]-amide and contained a monomethylated lysine at position 44 (SEQ ID NO.:5).
Molecular Biology: Full-length human PRMT6 (NM_018137.2) transcript clone was amplified from an HEK 293 cDNA library, incorporating a flanking 5′ sequence encoding a FLAG tag ([…]) (SEQ ID NO.:6) fused directly to Ser 2 of PRMT6 and a 3′ sequence encoding a hexa His sequence (HHHHHH) (SEQ ID NO.:17) fused directly to Asp 375. The amplified gene was subcloned into pFastBacMam (Viva Biotech).
Protein Expression. Recombinant baculovirus were generated according to Bac-to-Bac kit instructions (Life Technologies). […] Infections were carried out at 37° C. for 48 hours, harvested by centrifugation, and stored at −80° C. for purification.
Protein Purification. […] Column was washed with 20 mM imidazole in the same buffer and Flag-PRMT6-His was eluted with 150 mM imidazole. Pooled fractions were dialysed against buffer N^1-A and further purified by anti-flag M2 affinity chromatography. Flag-PRMT6-His was eluted with 200 ug/ml FLAG peptide in the same buffer. Pooled fractions were dialysed in 20 mM Tris, 150 mM NaCl, 10% glycerol and 5 mM β-mercaptoethanol, pH 7.8. The purity of recovered protein was 95%.
General Procedure for PRMT6 Enzyme Assays on Peptide Substrates. The assays were all performed in a buffer consisting of 20 mM Bicine (pH=7.6), 1 mM TCEP, 0.005% BSG, and 0.002% Tween 20, prepared on the day of use. Compounds in 100% DMSO (1 ul) were spotted into a polypropylene 384-well V-bottom plates (Greiner) using a Platemate Plus outfitted with a 384-channel head (Thermo Scientific). DMSO (1 ul) was added to Columns 11, 12, 23, 24, rows A-H for the maximum signal control and 1 ul of SAH, a known product and inhibitor of PRMT6, was added to columns 11, 12, 23, 24, rows I-P for the minimum signal control. A cocktail (40 ul) containing the PRMT6 enzyme was added by Multidrop Combi (Thermo-Fisher). The compounds were allowed to incubate with PRMT6 for 30 min at room temperature, then a cocktail (10 ul) containing SAM and peptide was added to initiate the reaction (final volume=51 ul). The final concentrations of the components were as follows: PRMT6 was 1 nM, ^3H-SAM was 200 nM, non-radiolabeled SAM was 250 nM, peptide was 75 nM, SAH in the minimum signal control wells was 1 mM, and the DMSO concentration was 2%. The assays were stopped by the addition of non-radiolabeled SAM (10 ul) to a final concentration of 400 uM, which dilutes the ^3H-SAM to a level where its incorporation into the peptide substrate is no longer detectable. 50 ul of the reaction in the 384-well polypropylene plate was then transferred to a 384-well Flashplate and the biotinylated peptides were allowed to bind to the streptavidin surface for at least 1 hour before being washed once with 0.1% Tween20 in a Biotek ELx405 plate washer. The plates were then read in a PerkinElmer TopCount plate reader to measure the quantity of ^3H-labeled peptide bound to the Flashplate surface, measured as disintegrations per minute (dpm) or alternatively, referred to as counts per minute (cpm). […]

[1] = read-out: Biochemical IC50 PRMT6
[2] = single experiment or average of multiple experiments, read-out: Biochemical IC50 PRMT6

full-length human PRMT6 (Flag- and His-tagged), sequence (Q96LA8 with tags, fused parts or gaps): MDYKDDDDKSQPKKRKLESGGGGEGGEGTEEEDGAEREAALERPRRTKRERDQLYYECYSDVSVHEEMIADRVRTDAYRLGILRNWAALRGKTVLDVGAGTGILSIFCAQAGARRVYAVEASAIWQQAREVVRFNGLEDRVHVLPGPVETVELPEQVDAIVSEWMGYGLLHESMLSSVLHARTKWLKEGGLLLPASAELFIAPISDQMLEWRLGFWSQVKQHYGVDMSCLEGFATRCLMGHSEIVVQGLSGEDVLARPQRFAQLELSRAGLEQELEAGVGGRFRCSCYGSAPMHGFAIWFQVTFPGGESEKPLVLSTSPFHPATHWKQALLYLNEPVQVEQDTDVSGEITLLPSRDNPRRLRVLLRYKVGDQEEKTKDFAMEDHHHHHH

| SMILES | IC50 [1] | IC50 [2] | IC50 (Biochemical IC50 PRMT6) | IC50 (Biochemical IC50 PRMT6, single experiment or average of multiple experiments) |
| --- | --- | --- | --- | --- |
| CNCCN(C)Cc1c[nH]nc1[C@H]1CC[C@H](O)C2(CCCCC2)C1 (racemic) [Compound 184, (1S,4S)-4-[4-({methyl[2-(methylamino)ethyl]amino}methyl)-1H-pyrazol-3-yl] spiro[5.5]undecan-1-ol] | 101 to 1000 nM | 101 nM | – | – |
| CNCCN(C)Cc1c[nH]nc1[C@H]1CC[C@@H](O)C2(CCCCC2)C1 (single isomer, unassigned) [Compound 183] | < 100 nM | 87.7 nM | – | – |
| CN(CCN)Cc1c[nH]nc1CCc1ccccc1 [Compound 9] | < 100 nM | 10 nM | – | – |
| CNCCN(C)Cc1c[nH]nc1[C@H]1CC[C@]2(CCC(C)(C)O2)CC1 [Compound 104] | < 100 nM | 40.5 nM | – | – |
| CNCCN(C)Cc1c[nH]nc1[C@H]1CC[C@@]2(CCOC2(C)C)CC1 [Compound 106, Methyl [2-(methylamino)ethyl]([3-[(5R,8R)-1,1-dimethyl-2-oxaspiro[4.5]decan-8-yl]-1H-pyrazol-4-yl]methyl)amine] | < 100 nM | 13.5 nM | – | – |
| CNCCN(C)Cc1c[nH]nc1[C@H]1CC[C@@H](N(CC2CCOCC2)C(=O)CC(C)C)CC1 [Compound 107] | 101 to 1000 nM | 130 nM | – | – |
| CCC(=O)N(CC1CCOCC1)[C@H]1CC[C@@H](c2n[nH]cc2CN(C)CCNC)CC1 [Compound 108] | 101 to 1000 nM | 326 nM | – | – |
| CCC(=O)N(CC1CCOCC1)[C@H]1CC[C@H](c2n[nH]cc2CN(C)CCNC)CC1 [Compound 109] | 101 to 1000 nM | 124 nM | – | – |
| CNCCN(C)Cc1c[nH]nc1C1CCC(=O)N(CCc2ccccc2)C1 (stereo not shown) [Compound 110] | < 100 nM | 29.4 nM | – | – |
| CNCCN(C)Cc1c[nH]nc1[C@H]1CC[C@]2(CCN(Cc3ccc(OCCOC)cc3)C2=O)CC1 [Compound 111] | < 100 nM | 45.5 nM | – | – |
| CNCCN(C)Cc1c[nH]nc1C1CCCC(COCCOC)C1 (stereo not shown) [Compound 112] | < 100 nM | 57.4 nM | – | – |
| CNCCN(C)Cc1c[nH]nc1C1CCCC(COCCC(O)CO)C1 (stereo not shown) [Compound 113] | < 100 nM | 66.9 nM | – | – |
| CNCCN(C)Cc1c[nH]nc1C1CCC(N(CC(C)C)C(=O)CC2CCOCC2)CC1 (stereo not shown) [Compound 114] | < 100 nM | 92.6 nM | – | – |
| CNCCN(C)Cc1c[nH]nc1C1CCC(=O)N(Cc2ccccc2)C1 (stereo not shown) [Compound 115] | < 100 nM | 62.7 nM | – | – |
| CNCCN(C)Cc1c[nH]nc1[C@H]1CC[C@H](OCCOc2ccc(OCCOC)cc2)CC1 [Compound 116] | – | – | < 100 nM | 18.7 nM |
| CNCCN(C)Cc1c[nH]nc1C1CCC(=O)N(CCC(C)C)C1 (stereo not shown) [Compound 117] | < 100 nM | 96.2 nM | – | – |
| CNCCN(C)Cc1c[nH]nc1C1CC(OC(C)C)CC(OC(C)C)C1 (stereo not shown) [Compound 118] | > 10000 nM | > 10000 nM | – | – |
| CCOCC1CC(COCC)CC(c2n[nH]cc2CN(C)CCNC)C1 (stereo not shown) [Compound 119] | 1010 to 3000 nM | 2750 nM | – | – |
| CNCCN(C)Cc1c[nH]nc1[C@H]1CC[C@@]2(CCN(Cc3ccc(OCCOC)cc3)C2=O)CC1 [Compound 120] | < 100 nM | 42.8 nM | – | – |
| CNCCN(C)Cc1c[nH]nc1C1CCC2(CC1)OC(C)CC(C)O2 (stereo not shown) [Compound 121] | < 100 nM | 97.7 nM | – | – |
| CNCCN(C)Cc1c[nH]nc1C1CC(OCC(C)C)CC(OCC(C)C)C1 (stereo not shown) [Compound 122] | > 10000 nM | > 10000 nM | – | – |
| CNCCN(C)Cc1c[nH]nc1[C@H]1CC[C@]2(CCN(Cc3ccc(F)cc3)C2=O)CC1 [Compound 123] | < 100 nM | 18 nM | – | – |
| CNCCN(C)Cc1c[nH]nc1[C@H]1CC[C@]2(CCN(CC(C)C)C2=O)CC1 [Compound 124] | < 100 nM | 26.2 nM | – | – |
| CNCCN(C)Cc1c[nH]nc1[C@H]1CC[C@@]2(CCN(Cc3ccc(F)cc3)C2=O)CC1 [Compound 125] | < 100 nM | 13.1 nM | – | – |
| CNCCN(C)Cc1c[nH]nc1[C@H]1CC[C@@]2(CCN(Cc3cc(F)cc(F)c3)C2=O)CC1 [Compound 126] | < 100 nM | 9.4 nM | – | – |

| SMILES | IC50 [1] | IC50 [2] | IC50 (Biochemical IC50 PRMT6) | IC50 (Biochemical IC50 PRMT6, single experiment or average of multiple experiments) |
| --- | --- | --- | --- | --- |
| CNCCN(C)Cc1c[nH]nc1[C@H]1CC[C@@]2(CCN(Cc3ccccc3)C2=O)CC1 [Compound 127] | < 100 nM | 22.3 nM | – | – |
| CNCCN(C)Cc1c[nH]nc1[C@H]1CC[C@]2(CCN(Cc3ccccc3)C2=O)CC1 [Compound 128] | < 100 nM | 13.1 nM | – | – |
| CNCCN(C)Cc1c[nH]nc1[C@H]1CC[C@@]2(CCN(CC(C)C)C2=O)CC1 [Compound 129] | < 100 nM | 29.7 nM | – | – |
| CNCCN(C)Cc1c[nH]nc1C1CCC2(CC1)CCC(F)(F)CC2 [Compound 130] | < 100 nM | 4.2 nM | – | – |
| CCCOC1CC(OCCC)CC(c2n[nH]cc2CN(C)CCNC)C1 (stereo not shown) [Compound 131] | > 10000 nM | > 10000 nM | – | – |
| CCOC1CC(OCC)CC(c2n[nH]cc2CN(C)CCNC)C1 (stereo not shown) [Compound 132] | 3010 to 10000 nM | 5500 nM | – | – |
| CNCCN(C)Cc1c[nH]nc1C1CCC(OCCOc2ccccc2)CC1 (stereo not shown) [Compound 136] | < 100 nM | 7.2 nM | – | – |
| CNCCN(C)Cc1c[nH]nc1C1CCC2(CCCCO2)CC1 (stereo not shown) [Compound 137] | < 100 nM | 23.3 nM | – | – |
| CNCCN(C)Cc1c[nH]nc1C1CC(COC)CC(COC)C1 (stereo not shown) [Compound 138] | 1010 to 3000 nM | 1210 nM | – | – |
| CNCCN(C)Cc1c[nH]nc1[C@H]1CC[C@H](OC2CCCCC2)CC1 [Compound 139] | < 100 nM | 22.6 nM | – | – |
| CNCCN(C)Cc1c[nH]nc1[C@H]1CC[C@@H](OC2CCCCC2)CC1 [Compound 140] | < 100 nM | 24 nM | – | – |
| CNCCN(C)Cc1c[nH]nc1[C@H]1CC[C@@]2(CCOC2)CC1 [Compound 141] | < 100 nM | 23 nM | – | – |
| CNCCN(C)Cc1c[nH]nc1[C@H]1CC[C@]2(CCOC2)CC1 [Compound 142] | < 100 nM | 19.9 nM | – | – |
| CNCCN(C)Cc1c[nH]nc1[C@H]1CC[C@@]2(CCCO2)CC1 [Compound 143] | < 100 nM | 22 nM | – | – |
| CNCCN(C)Cc1c[nH]nc1C1CCC2(CC1)CC2 [Compound 144] | < 100 nM | 35.6 nM | – | – |
| CNCCN(C)Cc1c[nH]nc1C1CCC2(CC1)CN(CC(C)C)C(=O)N2C (stereo not shown) [Compound 145] | < 100 nM | 38 nM | – | – |
| CNCCN(C)Cc1c[nH]nc1C1CCC2(CC1)CC(=O)N(Cc1ccc(OC)cc1)C2 (stereo not shown) [Compound 146] | < 100 nM | 21.7 nM | – | – |
| CNCCN(C)Cc1c[nH]nc1C1CCC2(CC1)CNC(=O)C2 (stereo not shown) [Compound 147] | < 100 nM | 32.7 nM | – | – |
| CC[C@H]1CC[C@H](c2n[nH]cc2CN(C)CCNC)CC1 [Compound 148] | < 100 nM | 8.1 nM | – | – |
| CNCCN(C)Cc1c[nH]nc1C1CCC(C)CC1 (stereo not shown) [Compound 149] | < 100 nM | 7.2 nM | – | – |
| CNCCN(C)Cc1c[nH]nc1C1CCC2(CC1)OCC(C(C)C)CO2 (stereo not shown) [Compound 150] | < 100 nM | 55.6 nM | – | – |
| CNCCN(C)Cc1c[nH]nc1C1CCC2(CC1)CN(C)C(=O)N2CC(C)C (stereo not shown) [Compound 151] | < 100 nM | 47.7 nM | – | – |
| CNCCN(C)Cc1c[nH]nc1C1CCC2(CC1)CCN(C)C2=O (stereo not shown) [Compound 152] | < 100 nM | 35.2 nM | – | – |
| CNCCN(C)Cc1c[nH]nc1C1CCC(OCC(C)C)CC1 (stereo not shown) [Compound 153] | < 100 nM | 28.4 nM | – | – |
| CCN1CC2(CCC(c3n[nH]cc3CN(C)CCNC)CC2)N(C)C1=O (stereo not shown) [Compound 154] | < 100 nM | 44.3 nM | – | – |
